Data on two compounds can be found in patent publication US20240368123A1, “AROMATIC RING-CONTAINING BIOLOGICAL ANTAGONIST, AND PREPARATION METHOD THEREFOR AND USE THEREOF” (SHANGHAI HANSOH BIOMEDICAL CO., LTD., priority 2021, published 2024).

pIC50: −log10 of the molar value.

In test [1] the target is T1, CYP450 enzyme subtype 2C19 (Homo sapiens, UniProt P33261).
T1 construct: Human liver microsome incubation system was used; from tissue; host or cells: human liver microsomes
Kind of test: CYP enzyme single point inhibition test, 2C19. Type of test: in vitro ADME. The settings on record: human liver microsomes, single point method. As for the experimental part:
(§1) Human liver microsome incubation system was used, and the single point method was used to quickly predict the inhibition on CYP450 enzyme subtypes (1A2, 2C19, 2D6, 3A4-M, and 3A4-T) by compounds.
(§2) For 2.5 mM NADPH, 4.165 mg of NADPH (reduced nicotinamide adenine dinucleotide phosphate) was weighed and 100 mM phosphate buffer was added to 2 mL. For 0.25 mg/mL microsomes, 50 μL of 20 mg/mL microsomes was added to 4 mL of 100 mM phosphate buffer and mixed evenly.
(§3) The test example compound was weighed, diluted to 10 mM with DMSO, and then diluted to 100 μM with 100 mM phosphate buffer.
(§4) • 1. 40 μL of liver microsomes, 10 μL of substrate, and 10 μL of test compound were added in a 96-well plate and the mixture was pre-incubated for 3 min. • 2. 40 μL of NADPH was added. • 3. At 20 min, 300 μL of acetonitrile stop solution containing internal standard was added. • 4. The mixture was centrifuged and the sample was loaded.
In general terms: Liver microsomes are vesicles of endoplasmic reticulum, rich in cytochrome P450 enzymes.

For test [2], the target named is T2, CYP450 enzyme subtype 3A4-M (Homo sapiens, UniProt P08684).
T2 construct: Human liver microsome incubation system was used; from tissue; host or cells: human liver microsomes
Put plainly: CYP enzyme single point inhibition test, 3A4-M. As to conditions: human liver microsomes, single point method. Type of test: in vitro ADME. As for the experimental part:
as §1, §2, §3, §4

Test [3] deals with T3, CYP450 enzyme subtype 2D6 (Homo sapiens, UniProt P10635).
T3 construct: Human liver microsome incubation system was used; from tissue; host or cells: human liver microsomes
Kind of test: CYP enzyme single point inhibition test, 2D6. Type of test: in vitro ADME. The settings on record: human liver microsomes, single point method. As for the experimental part: as §1, §2, §3, §4

Test [4] relates to spontaneously hypertensive rat (SHR) model. Kind of test: Pharmacodynamic evaluation on blood pressure in spontaneously hypertensive rats. As to conditions: P.O, 30 mpk, 1-8 h after administration, P<0.05. Type of test: in vivo. The text has this: This experiment used a spontaneously hypertensive rat (SHR) model to evaluate the pharmacodynamic effect of the test compounds on the blood pressure and heart rate of the model.
Kent Scientific CODA non-invasive blood pressure system.
Spontaneously hypertensive rats (SHR) were provided by Beijing Vital River Laboratory Animal Technology Co., Ltd., male, 150-200 g, 13-15 weeks old, 50 rats.
After animals arrived at the experimental facility, the animals were adapted to the animal facility for 5-7 days. 4.2 After the adaptation period, the animals were adapted to the tail oversleeve restrain for 3 days, and the tail oversleeve restrain was performed twice a day. After the last restrain adaptation, the basal blood pressure was measured, and the animals were randomly divided into groups according to the basal blood pressure. There was no significant difference between the average systolic blood pressure of animals in each group, and the number of animals in each group met the requirements of statistical testing and pharmacodynamic guidelines. 4.3 On the second day after grouping, the animals were administered according to experimental design and grouping (P.O, 5 mL/kg), and the systolic blood pressure (SBP), diastolic blood pressure (DBP), mean arterial pressure (MAP) and heart rate (HR) of the animals were measured before administration and at 1, 2, 4, 6, 8 and 24 h after administration using tail oversleeve method.
Statistical differences between groups were analyzed by Two-way ANOVA test. Among them, P<0.05 indicated a significant difference, and P<0.01 indicated an extremely significant difference.

T3 sequence (P10635 whole entry): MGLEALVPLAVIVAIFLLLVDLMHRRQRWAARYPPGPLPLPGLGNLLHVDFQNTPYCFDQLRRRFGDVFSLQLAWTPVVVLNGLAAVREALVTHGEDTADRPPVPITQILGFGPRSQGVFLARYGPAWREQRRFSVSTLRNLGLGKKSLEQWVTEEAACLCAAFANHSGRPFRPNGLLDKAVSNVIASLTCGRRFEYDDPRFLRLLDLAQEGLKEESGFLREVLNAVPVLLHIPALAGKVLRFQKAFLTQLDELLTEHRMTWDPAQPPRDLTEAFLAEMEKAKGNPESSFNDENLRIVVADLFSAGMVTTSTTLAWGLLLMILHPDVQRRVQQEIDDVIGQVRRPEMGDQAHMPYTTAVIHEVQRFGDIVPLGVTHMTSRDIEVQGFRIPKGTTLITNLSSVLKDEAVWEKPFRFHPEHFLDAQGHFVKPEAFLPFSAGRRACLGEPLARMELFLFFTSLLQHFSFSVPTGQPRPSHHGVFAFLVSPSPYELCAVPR
T2 sequence (P08684 whole entry): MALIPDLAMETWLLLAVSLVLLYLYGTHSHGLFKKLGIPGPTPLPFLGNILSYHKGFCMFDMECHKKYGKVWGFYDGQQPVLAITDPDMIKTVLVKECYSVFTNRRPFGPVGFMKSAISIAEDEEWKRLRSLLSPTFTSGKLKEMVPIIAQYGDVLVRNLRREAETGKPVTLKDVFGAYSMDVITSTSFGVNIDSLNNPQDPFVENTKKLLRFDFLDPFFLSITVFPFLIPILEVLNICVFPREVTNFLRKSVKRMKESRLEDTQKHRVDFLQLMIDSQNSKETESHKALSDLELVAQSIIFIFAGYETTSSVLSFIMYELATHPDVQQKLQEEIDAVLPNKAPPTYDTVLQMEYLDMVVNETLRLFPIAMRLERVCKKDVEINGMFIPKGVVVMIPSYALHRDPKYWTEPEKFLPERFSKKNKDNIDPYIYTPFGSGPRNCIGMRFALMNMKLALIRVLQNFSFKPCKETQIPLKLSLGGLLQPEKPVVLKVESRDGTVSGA
T1 sequence (P33261 whole entry): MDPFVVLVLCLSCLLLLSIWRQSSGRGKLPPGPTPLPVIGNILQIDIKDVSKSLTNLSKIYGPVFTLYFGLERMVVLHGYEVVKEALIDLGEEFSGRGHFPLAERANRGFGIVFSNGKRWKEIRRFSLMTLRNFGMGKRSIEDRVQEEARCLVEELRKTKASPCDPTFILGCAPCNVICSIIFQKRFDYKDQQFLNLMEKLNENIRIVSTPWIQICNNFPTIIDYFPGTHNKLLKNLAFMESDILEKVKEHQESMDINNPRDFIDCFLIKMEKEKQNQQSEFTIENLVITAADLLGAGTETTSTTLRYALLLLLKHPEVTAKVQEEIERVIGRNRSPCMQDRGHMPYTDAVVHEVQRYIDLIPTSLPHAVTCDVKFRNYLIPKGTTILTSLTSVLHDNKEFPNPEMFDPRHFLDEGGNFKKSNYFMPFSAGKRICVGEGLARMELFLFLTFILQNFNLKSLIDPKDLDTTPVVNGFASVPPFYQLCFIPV

Broadly, the pIC50 is −log10 of the IC50, conventionally taken in molar units. Read a low pIC50 as a high IC50. As for `CCCCC1=NC2(CCCC2)C(=O)N1Cc1ccc(-c2ccccc2S(=O)(=O)Nc2noc(C)c2Br)c(COCC)c1` [Example 46, 2-[4-[(2-butyl-4-oxo-1,3-diazaspiro[4.4]non-1-en-3-yl)methyl]-2-(ethoxymethyl)phenyl]-N-(4-bromo-5-methyl-isoxazol-3-yl)benzsulfamide], the pIC50 was under 4.00 in test [1], 4.78 in test [2] and under 4.00 in test [3].

In the case of `[2H]C([2H])(OCC)c1cc(CN2C(=O)C3(CCCC3)N=C2CCCC)ccc1-c1ccccc1S(=O)(=O)Nc1noc(C)c1Cl` [Example 49, 4′-((2-butyl-4-oxo-1,3-diazospiro[4.4]non-1-en-3-yl)methyl)-N-(4-chloro-5-methylisoxazol-3-yl)-2′-(ethoxydeuteriummethyl)-[1,1′-biphenyl]-2-sulfonamide], in test [4], the “blood pressure (systolic blood pressure, diastolic blood pressure, mean arterial pressure) compared with the vehicle group” value was “significantly reduced blood pressure”.
